Experimental data: US7101849B1 (The University of Queensland, priority 1998, dated 2006)

What was measured:
[1] = target: N-type calcium channel (Rattus norvegicus, UniProt Q02294); assay type: binding
[2] = target: N-type calcium channels (Homo sapiens, UniProt Q00975); conditions: cited from earlier work
[3] = target: P/Q-type channels (Homo sapiens, UniProt O00555); conditions: cited from earlier work
[4] = tested on: peripheral channels; conditions: in vivo; cited from earlier work

Chain of N-type calcium channel (Q02294 whole entry, looked up): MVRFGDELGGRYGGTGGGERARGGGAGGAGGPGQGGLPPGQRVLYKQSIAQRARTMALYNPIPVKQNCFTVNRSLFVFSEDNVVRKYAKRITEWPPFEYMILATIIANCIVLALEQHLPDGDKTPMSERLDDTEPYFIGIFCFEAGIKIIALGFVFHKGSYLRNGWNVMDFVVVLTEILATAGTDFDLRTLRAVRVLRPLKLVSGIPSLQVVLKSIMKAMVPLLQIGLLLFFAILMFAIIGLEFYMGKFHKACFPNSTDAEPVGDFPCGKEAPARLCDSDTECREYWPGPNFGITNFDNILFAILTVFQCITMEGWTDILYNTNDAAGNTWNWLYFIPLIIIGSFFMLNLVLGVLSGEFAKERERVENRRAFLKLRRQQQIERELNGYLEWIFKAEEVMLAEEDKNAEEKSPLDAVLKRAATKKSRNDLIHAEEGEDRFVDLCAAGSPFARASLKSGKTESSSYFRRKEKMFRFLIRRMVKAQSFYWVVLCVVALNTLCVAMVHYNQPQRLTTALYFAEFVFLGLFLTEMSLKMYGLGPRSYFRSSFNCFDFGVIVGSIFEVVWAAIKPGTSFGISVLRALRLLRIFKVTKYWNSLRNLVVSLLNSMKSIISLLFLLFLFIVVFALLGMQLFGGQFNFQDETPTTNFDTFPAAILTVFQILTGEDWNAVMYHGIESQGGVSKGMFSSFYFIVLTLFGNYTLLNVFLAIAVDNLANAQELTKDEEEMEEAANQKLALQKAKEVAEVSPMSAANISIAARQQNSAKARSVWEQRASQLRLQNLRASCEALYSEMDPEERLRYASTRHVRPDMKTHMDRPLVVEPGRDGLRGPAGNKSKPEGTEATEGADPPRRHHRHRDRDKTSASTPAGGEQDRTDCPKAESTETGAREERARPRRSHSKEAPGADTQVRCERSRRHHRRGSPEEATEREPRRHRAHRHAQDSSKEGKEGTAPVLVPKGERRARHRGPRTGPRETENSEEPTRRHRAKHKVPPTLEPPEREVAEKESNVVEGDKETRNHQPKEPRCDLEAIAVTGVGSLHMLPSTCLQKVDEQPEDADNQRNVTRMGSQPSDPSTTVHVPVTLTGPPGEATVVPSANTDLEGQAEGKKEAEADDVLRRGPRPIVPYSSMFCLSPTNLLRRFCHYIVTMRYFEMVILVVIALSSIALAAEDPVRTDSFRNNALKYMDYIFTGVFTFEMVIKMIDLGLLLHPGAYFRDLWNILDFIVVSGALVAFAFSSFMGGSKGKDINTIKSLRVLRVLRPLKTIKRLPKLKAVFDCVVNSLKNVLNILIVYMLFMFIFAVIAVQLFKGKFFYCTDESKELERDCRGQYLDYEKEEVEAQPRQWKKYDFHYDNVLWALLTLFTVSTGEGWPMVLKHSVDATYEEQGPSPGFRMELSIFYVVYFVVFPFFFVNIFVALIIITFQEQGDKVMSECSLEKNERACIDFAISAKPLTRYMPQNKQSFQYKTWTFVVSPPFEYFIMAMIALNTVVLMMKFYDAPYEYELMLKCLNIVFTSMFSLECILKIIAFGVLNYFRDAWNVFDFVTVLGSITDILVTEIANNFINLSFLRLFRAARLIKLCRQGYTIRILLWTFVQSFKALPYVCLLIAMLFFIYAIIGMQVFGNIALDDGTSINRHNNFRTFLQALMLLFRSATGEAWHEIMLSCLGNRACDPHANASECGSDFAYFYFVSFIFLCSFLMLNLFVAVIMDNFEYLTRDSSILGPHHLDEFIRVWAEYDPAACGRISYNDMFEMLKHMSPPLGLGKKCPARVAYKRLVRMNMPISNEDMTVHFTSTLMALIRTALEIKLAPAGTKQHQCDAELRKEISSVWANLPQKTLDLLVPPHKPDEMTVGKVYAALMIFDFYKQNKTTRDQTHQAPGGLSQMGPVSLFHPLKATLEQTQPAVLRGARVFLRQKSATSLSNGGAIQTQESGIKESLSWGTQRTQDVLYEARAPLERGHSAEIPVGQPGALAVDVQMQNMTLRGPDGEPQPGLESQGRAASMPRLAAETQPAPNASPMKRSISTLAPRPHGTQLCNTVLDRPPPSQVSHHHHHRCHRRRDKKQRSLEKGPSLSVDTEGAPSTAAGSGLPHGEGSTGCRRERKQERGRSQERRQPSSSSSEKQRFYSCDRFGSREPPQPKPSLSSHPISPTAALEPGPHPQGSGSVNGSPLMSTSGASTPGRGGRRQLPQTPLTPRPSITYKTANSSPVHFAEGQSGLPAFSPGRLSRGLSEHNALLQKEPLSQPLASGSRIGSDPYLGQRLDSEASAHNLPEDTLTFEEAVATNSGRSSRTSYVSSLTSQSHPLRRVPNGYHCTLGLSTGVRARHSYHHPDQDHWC
Chain of N-type calcium channels (Q00975 whole entry, looked up): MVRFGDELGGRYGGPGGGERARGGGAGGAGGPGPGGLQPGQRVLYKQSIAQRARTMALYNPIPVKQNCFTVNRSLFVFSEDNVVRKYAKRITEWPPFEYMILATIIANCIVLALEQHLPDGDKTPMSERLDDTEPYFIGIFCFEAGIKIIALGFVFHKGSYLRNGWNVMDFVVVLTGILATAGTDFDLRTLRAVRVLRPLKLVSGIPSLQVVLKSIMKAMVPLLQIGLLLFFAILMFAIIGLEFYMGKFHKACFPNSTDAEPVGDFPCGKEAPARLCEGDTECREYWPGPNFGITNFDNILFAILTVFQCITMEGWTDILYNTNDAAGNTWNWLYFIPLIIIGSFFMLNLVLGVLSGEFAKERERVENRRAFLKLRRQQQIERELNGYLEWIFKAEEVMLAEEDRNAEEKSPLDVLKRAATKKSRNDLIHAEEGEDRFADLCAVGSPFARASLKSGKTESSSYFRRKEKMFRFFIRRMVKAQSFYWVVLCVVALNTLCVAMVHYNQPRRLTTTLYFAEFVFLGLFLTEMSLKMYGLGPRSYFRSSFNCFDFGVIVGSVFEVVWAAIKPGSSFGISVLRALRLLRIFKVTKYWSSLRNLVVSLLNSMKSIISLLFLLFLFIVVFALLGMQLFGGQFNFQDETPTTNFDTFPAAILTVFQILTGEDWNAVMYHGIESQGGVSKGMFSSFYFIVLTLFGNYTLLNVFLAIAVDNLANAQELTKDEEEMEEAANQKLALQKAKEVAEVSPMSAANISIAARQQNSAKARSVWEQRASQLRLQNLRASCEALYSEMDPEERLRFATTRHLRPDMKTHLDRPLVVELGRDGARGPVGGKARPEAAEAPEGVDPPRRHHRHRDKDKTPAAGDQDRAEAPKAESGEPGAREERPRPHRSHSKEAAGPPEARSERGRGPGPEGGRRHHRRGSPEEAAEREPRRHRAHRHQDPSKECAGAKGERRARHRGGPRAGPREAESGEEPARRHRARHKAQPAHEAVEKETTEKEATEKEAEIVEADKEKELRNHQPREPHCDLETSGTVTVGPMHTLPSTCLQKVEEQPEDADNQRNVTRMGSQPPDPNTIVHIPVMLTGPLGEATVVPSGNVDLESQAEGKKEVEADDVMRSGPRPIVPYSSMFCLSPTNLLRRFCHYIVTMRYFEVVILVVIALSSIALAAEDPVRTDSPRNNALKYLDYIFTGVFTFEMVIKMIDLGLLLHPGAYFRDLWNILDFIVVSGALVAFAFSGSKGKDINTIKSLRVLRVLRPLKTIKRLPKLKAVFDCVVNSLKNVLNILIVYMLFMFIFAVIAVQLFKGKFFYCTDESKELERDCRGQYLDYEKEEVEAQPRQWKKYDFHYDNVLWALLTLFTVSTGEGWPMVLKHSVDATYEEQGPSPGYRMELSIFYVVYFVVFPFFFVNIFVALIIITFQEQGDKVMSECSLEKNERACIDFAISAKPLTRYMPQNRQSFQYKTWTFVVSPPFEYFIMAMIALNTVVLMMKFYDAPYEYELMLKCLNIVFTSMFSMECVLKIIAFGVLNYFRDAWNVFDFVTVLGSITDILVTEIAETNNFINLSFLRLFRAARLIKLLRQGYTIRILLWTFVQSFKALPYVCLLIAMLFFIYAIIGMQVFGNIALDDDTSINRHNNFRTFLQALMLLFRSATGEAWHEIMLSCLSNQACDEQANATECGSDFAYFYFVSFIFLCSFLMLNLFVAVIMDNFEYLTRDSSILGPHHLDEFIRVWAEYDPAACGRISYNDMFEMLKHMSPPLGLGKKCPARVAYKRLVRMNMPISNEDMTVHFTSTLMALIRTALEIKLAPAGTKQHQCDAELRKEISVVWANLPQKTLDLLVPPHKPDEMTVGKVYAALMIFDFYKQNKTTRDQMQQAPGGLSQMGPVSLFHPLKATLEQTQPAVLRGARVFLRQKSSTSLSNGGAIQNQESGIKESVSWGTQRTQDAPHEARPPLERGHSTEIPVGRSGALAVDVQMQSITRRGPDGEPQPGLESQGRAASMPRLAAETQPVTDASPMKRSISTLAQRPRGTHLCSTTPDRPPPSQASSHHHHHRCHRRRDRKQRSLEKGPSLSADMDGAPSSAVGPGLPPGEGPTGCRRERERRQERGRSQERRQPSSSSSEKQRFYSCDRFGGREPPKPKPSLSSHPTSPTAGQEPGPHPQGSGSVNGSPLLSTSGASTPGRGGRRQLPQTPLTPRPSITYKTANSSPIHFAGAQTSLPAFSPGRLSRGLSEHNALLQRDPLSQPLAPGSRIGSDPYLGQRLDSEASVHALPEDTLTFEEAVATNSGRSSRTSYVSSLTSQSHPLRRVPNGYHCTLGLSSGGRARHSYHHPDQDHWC

Compound	potency for N-type calcium channel in receptor binding assays [1]	selectivity for N-type calcium channel over P/Q-type calcium channel in receptor binding assays [1]	affinity / selectivity for N-type calcium channels [2]	other results
CKSKGAKCSKLMYDCCSGSCSGTVGRC [CVID]	high potency	high selectivity		
CKSKGAKCSRLMYDCCSGSCSGTVGRC [R^10-CVID]	high potency	high selectivity		
CKGKOAPCRKTMYDCCSGSCGRRGKC [MVIIC]			low affinity	binding to P/Q-type channels [3]: bind strongly
CKSOGSSCSOTSYNCCRSCNOYTKRCY [GVIA]			high level of selectivity	antagonism of N-type calcium channels [2]: potent antagonist; reversibility of binding to N-type calcium channels [2]: irreversible
CSCC[C@@H]1NC(=O)[C@H](CC(C)C)NC(=O)[C@H](CCCNC(=N)N)NC(=O)[C@H](CO)NC(=O)[C@@H]2CSSC[C@@H]3NC(=O)[C@H](CO)NC(=O)CNC(=O)[C@H]([C@@H](C)O)NC(=O)[C@H](CSSC[C@H](N)C(=O)N[C@@H](CCCCN)C(=O)NCC(=O)N[C@@H](CCCCN)C(=O)NCC(=O)N[C@@H](C)C(=O)N[C@@H](CCCCN)C(=O)N2)NC(=O)[C@H](CSSC[C@@H](C(N)=O)NC(=O)[C@H](CCCCN)NC(=O)CNC(=O)[C@H](CO)NC(=O)[C@H](CCCNC(=N)N)NC3=O)NC(=O)[C@H](CC(=O)O)NC(=O)[C@H](Cc2ccc(O)cc2)NC1=O [SNX-111]				hypotension [4]: cause hypotension
